Measurements as given in paper PMC12768458 (European journal of medicinal chemistry, 2025).

Columns and labels:
[1] = system: colony forming megakaryocyte; conditions: CFU-Mk ref 14; cited from earlier work
BRD3-D2 = BRD3-D2 (Homo sapiens, UniProt Q15059); assay: differential scanning fluorimetry; format: binding; conditions: DSF
BRD2-D2 = BRD2-D2 (Homo sapiens, UniProt P25440); assay: differential scanning fluorimetry; format: binding; conditions: DSF
CXCL1 mRNA expression = conditions: LPS-induced TSECs, prior work ref 27; cited from earlier work
CCL2 mRNA expression = conditions: LPS-induced TSECs, prior work ref 27; cited from earlier work
BET bromodomains = assay: differential scanning fluorimetry; format: binding; conditions: DSF, majority of BET bromodomains
NLuc-BRD4-D1 = NLuc-BRD4-D1 (Homo sapiens, UniProt O60885); assay: live-cell NanoBRET competition assay in HEK293T; format: cell-based; conditions: 1.25 μM, 2 h at 37 °C

BRD2-D2, sequence (P25440 344-453 limits assumed): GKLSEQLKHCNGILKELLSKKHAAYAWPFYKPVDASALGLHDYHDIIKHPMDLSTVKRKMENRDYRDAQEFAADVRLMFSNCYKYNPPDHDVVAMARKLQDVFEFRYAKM
BRD3-D2, sequence (Q15059 306-415 limits assumed): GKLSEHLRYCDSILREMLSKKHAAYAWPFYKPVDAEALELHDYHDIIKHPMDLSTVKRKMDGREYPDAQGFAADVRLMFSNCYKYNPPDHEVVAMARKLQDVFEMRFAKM

Row | SMILES | less toxic compared to ABBV-075 [1] | stabilization in melting temperature (BRD3-D2) | stabilization in melting temperature (BRD2-D2) | CXCL1 expression, in words (CXCL1 mRNA expression) | CCL2 expression, in words (CCL2 mRNA expression) | stabilization in melting temperature (BET bromodomains) | % inhibition of BRD4-D1 (NLuc-BRD4-D1)
1 | CCNC(=O)c1cc2c(-c3cc(C(C)(C)O)ccc3Oc3c(C)cc(F)cc3C)cn(C)c(=O)c2[nH]1 [ABBV-744] | 18 fold |  |  |  |  |  | 
2 | COc1cc2c(cc1-c1c(C)noc1C)ncc1[nH]c(=O)n([C@H](C)c3ccccn3)c12 [IBET-151] |  | 3.96 ±0.09 °C | 3.70 ±0.12 °C | significant efficacy in reducing the downstream expression of CXCL1 and CCL2 | decrease in CCL2 mRNA levels comparable to control levels | > 6 °C | 85 ±6%
3 | CC(=O)Nc1c(F)cc(C(=O)N[C@H]2CC[C@H](O)CC2)cc1O[C@@H](C)c1ccccc1 [iBET-BD2] |  |  |  | does not significantly reduce the expression of CXCL1 |  |  | 
